Compound | melting point
CCCNC(=O)c1cnc2ccccc2c1O | 210 °C
CCc1ccc(Nc2nc3cc(NC(=O)c4ccc(Cl)c(Cl)c4)ccc3o2)cc1 | > 250 °C
N#CNC1NN=C(c2ccc3ccccc3c2)S1 (stereo unspecified) | > 260 °C
COC(=O)c1ccc(OCc2ccccc2)cn1 | 90 to 90.5 °C
CN(CCc1[nH]c2ccccc2c1-c1ccccc1)C(=O)CCl | 135 to 138 °C
C1COCCOCCNCCOCC2(COCCN1)COC2 | 147 to 150 °C
Cc1noc(=O)c2ccc(NC(=O)C(C)(O)CC3(c4cccc(C(F)(F)F)c4)CC3)cc12 (stereo unspecified) | 75 to 76 °C
CCNC(=O)c1ccc(CN2C(=O)C3(COc4cc5c(cc43)CCO5)c3ccccc32)cc1 (stereo unspecified) | 190 to 191 °C
Cc1ccc(-c2c(C#N)c(CC(C)C)nc3ccc(OCc4ccccc4)cc23)cc1 | 137 to 138 °C
Cc1cc(-c2cncc(OC3SCC(O)C(O)C3O)c2)ccn1 (stereo unspecified) | 120 °C
Cc1cccc2c1N(C)CS2=O (stereo unspecified) | 122 to 124 °C
Cc1ccc(C(=O)NCC(=O)N2CC2C#N)cc1 (stereo unspecified) | 92 to 94 °C
Cc1ccc(N2C(=O)C(O)=C(C(=O)c3ccccc3C)C2c2ccc(C(C)C)cc2)nn1 (stereo unspecified) | 221 °C
Cn1ccc2c(C(=O)c3ccccc3OCCCCl)cccc21 | 60 °C
COc1ccc(-c2nc(N)ncc2-c2ccc(=O)n(C)n2)cc1F | 245 °C
CC(=O)N1CCN=C1Nc1cc(C)nn1-c1ccc(Cl)cc1C | 195 °C
CCC(C)C(NS(=O)c1ccc(C)cc1)C1(C(=O)NC)SCCS1 (stereo unspecified) | 147 to 154 °C
O=C(Nc1cc(Cl)ccn1)c1ccn2c1CSC2c1cccnc1 (stereo unspecified) | 190 °C
Nc1nc(-n2cc(C(=O)O)c(=O)c3c(F)c(F)c(F)c(F)c32)c(F)cc1F | 236 to 242 °C
Cc1ccc2c(-c3nnn[nH]3)cn(Cc3ccc4oc(-c5nc(C(C)(C)C)cs5)cc4c3)c2c1 | 240 to 245 °C
c1ccc2c(c1)CCOC2 | 89 to 90 °C
CC(C)(N)c1ccc(-c2nc(Nc3ccc(F)c(F)c3)ncc2C#N)cc1 | 192 °C
CCCCn1c(Nc2cc(Cl)cc(C(F)(F)F)c2)nc(C(F)(F)F)cc1=O | 157 to 158 °C
CCn1ccc2c(C)nc3c(Br)cnn3c21 | 113 to 114 °C
c1ccc2c(N3CCN(CCc4ccc(-c5csnn5)cc4)CC3)nsc2c1 | 257 to 259 °C
O=[N+]([O-])c1ccc2[nH]c(C(F)(F)F)cc2c1 | 190 to 193 °C

Compound | melting point
COC(=O)NCC(C)(C)c1ccc(NC(=O)c2ccc(OC)c(OC)c2)cc1 | 67 to 69 °C
CCCc1c(OCCCOc2cccc3c2CCCC3)ccc2c1OC(CCCC=O)(CCCC=O)CC2=O | 72 to 73 °C
O=CN(O)[C@@H](CN1C(=O)CNC1=O)CS(=O)(=O)c1ccc(Oc2ccc(OC(F)(F)F)cc2)cc1 | 154 °C
CSc1nc(=O)n(C)cc1F | 154 °C
Nc1ccc2c(c1)N(C(=O)CCCl)CC2 | 158 to 159 °C
C=CC1C(=O)N(c2ccc(OC)cc2)C1C(=O)OCC (stereo unspecified) | 70 to 72 °C
Cc1ccc(-c2nc(Cl)nc(Cl)n2)c(C)c1 | 136 to 137 °C
CCOC(=O)c1cc(C=O)ccc1O | 67 to 69 °C
O=C(CC1c2cc(Cl)ccc2S(=O)(=O)N1c1ccccc1)NO (stereo unspecified) | 192 to 194 °C
CCc1cc2c(cc1C#Cc1ccc(C)cc1)C(C)(C)CCC2(C)C | 72 to 73 °C
CCOC(=O)c1cnc(NN)nc1C(F)(F)F | 89 to 90 °C
O=C(O)c1cccc(OCc2c(Cl)cccc2Cl)c1 | 187 to 189 °C
NCC(=O)N1Cc2ccccc2Oc2ccc(Cl)cc21 | 108 to 109 °C
COc1c(N2C[C@H](CF)[C@](C)(N)C2)c(F)cc2c(=O)c(C(=O)O)cn([C@@H]3C[C@@H]3F)c12 | 187 to 189 °C
Cc1n[nH]c(C)c1Cc1cc(Cl)cc(Cl)c1 | 133 to 134 °C
CC(C)(C)c1ccc(CCC(=O)N2C(=O)OC[C@@H]2Cc2ccccc2)cc1 | 123 to 126 °C
CCON=C(CC)C1=C(O)CC(c2ccc3c(c2)OCC(=O)N3)CC1=O (stereo unspecified) | 160 to 162 °C
Cc1ccc2c(c1)[nH]c(=O)n2CCCOS(C)(=O)=O | 125 °C
CCC(C)c1c(OC)ccc2c1oc1ccc(C#N)cc12 (stereo unspecified) | 80 to 82 °C
CC(C(N)=O)c1ccc2c(c1)CCc1cccnc1S2 (stereo unspecified) | 174 to 175 °C
CC(C)Oc1cc(CCCOc2nn(Cc3ccccc3)cc2CC(=O)O)n(Cc2ccc(F)cc2Cl)n1 | 121 to 123 °C
O=C(c1ccc(C2CCCCC2)cc1)c1cccnc1 | 52 to 54 °C
O=C(Cc1ccccc1)Nc1ccccc1OCc1ccccc1 | 96 to 98 °C
CCOC(=O)NCCS(=O)CC(=O)NCC=CCOc1cccc(CN2CCCCC2)c1 (stereo unspecified) | 64.7 to 66.1 °C
O=C1c2ccccc2SCN1CCO[N+](=O)[O-] | 68 to 69 °C
